Consider 2 compounds from patent US5852008A, “Heteroatom substituted benzoyl derivatives that enhance synaptic response mediated by receptors” (The Regents of the University of California, priority 1995, dated 1998).

The term EC50 denotes the concentration giving half of the maximal effect.

“Also recorded” adds a separate entry of the source.

The conditions of data set [1]: peripheral administration in humans; cited from earlier work.
The subject of another data set is AMPA receptors. The data set is described as follows: Field EPSP in rat hippocampal slices (field CA1): amplitude and area of AMPA receptor-mediated synaptic responses. The data set is classed as cell-based, rat (Sprague-Dawley). Here is the method:
The physiological effects of invention compounds can be tested in vitro with slices of rat hippocampus as follows. Excitatory responses (field EPSPs) are measured in hippocampal slices which are maintained in a recording chamber continuously perfused with artificial cerebrospinal fluid (ACSF).
To conduct these tests, the hippocampus was removed from anesthetized, 2 month old Sprague-Dawley rats and in vitro slices (400 micrometers thick) were prepared and maintained in an interface chamber at 35° C. using conventional techniques [see, for example, Dunwiddie and Lynch, J. Physiol. Vol. 276: 353-367 (1978)]. The chamber was constantly perfused at 0.5 ml/min with ACSF containing (in mM): NaCl 124, KCl 3, KH2 PO4 1.25, MgSO4 2.5, CaCl2 3.4, NaHCO3 26, glucose 10 and L-ascorbate 2. A bipolar nichrome stimulating electrode was positioned in the dendritic layer (stratum radiatum) of the hippocampal subfield CA1 close to the border of subfield CA3.
Current pulses (0.1 msec) through the stimulating electrode activate a population of the Schaffer-commissural (SC) fibers which arise from neurons in the subdivision CA3 and terminate in synapses on the dendrites of CA1 neurons. Activation of these synapses causes them to release the transmitter glutamate. Glutamate binds to the postsynaptic AMPA receptors which then transiently open an associated ion channel and permit a sodium current to enter the postsynaptic cell. This current results in a voltage in the extracellular space (the field excitatory postsynaptic potential or field "EPSP") which is recorded by a high impedance recording electrode positioned in the middle of the stratum radiatum of CA1.
For the experiments summarized in FIG. 1, the intensity of the stimulation current was adjusted to produce half-maximal EPSPs (typically about 1.5-2.0 mV). Paired stimulation pulses were given every 40 sec with an interpulse interval of 200 msec (see below). The field EPSPs of the second response were digitized and analyzed to determine amplitude, half-width, and response area. If the responses were stable for 15-30 minutes (baseline), test compounds were added to the perfusion lines for a period of about 15 minutes. The perfusion was then changed back to regular ACSF.
Paired-pulse stimulation was used since stimulation of the SC fibers, in part, activates interneurons which generate an inhibitory postsynaptic potential (IPSP) in the pyramidal cells of CA1. This feed forward IPSP typically sets in after the EPSP reaches its peak. It accelerates the repolarization and shortens the decay phase of the EPSP, and thus could partially mask the effects of the test compounds. One of the relevant features of the feed-forward IPSP is that it can not be reactivated for several hundred milliseconds following a stimulation pulse. This phenomenon can be employed to advantage to eliminate IPSP by delivering paired pulses separated by 200 milliseconds and using the second ("primed") response for data analysis.
These effects are mirrored in the field EPSP, as reported in the literature [see, for example, Staubli et al., Psychobiology supra; Xiao et al., Hippocampus supra; Staubli et al., Hippocampus Vol. 2: 49-58 (1992)].
The variables set forth in the table refer to the following generic structure: [drawing 33]

The subject of data set [2] is long-term potentiation in CA1 field of hippocampal slices. The data set is described as follows: Promotion of long-term potentiation (LTP) in CA1 field of hippocampal slices. It counts as cell-based, rat. The following applies: 1.5 mM, theta burst stimulation; vs absence of drug, p<0.02; FIG. 3. Here is the method: Long-term potentiation (LTP; a stable increase in the EPSP size of single responses after brief periods of high frequency stimulation) was elicited in the CA1 field of hippocampal slices in the absence (see FIG. 3, stippled bars, N=6) and in the presence of 1.5 mM of Invention Compound I (see FIG. 3, striped bars, N=5). In the latter case, the amount of potentiation was determined after washing out the test compound and comparing the response size with that before test compound infusion. Data presented in FIG. 3 show the percent increase in the EPSP amplitude (mean and S.D.) at 40, 60, and 90 minutes after LTP induction.
For these studies, field EPSPs in slices of hippocampus were elicited by single stimulation pulses and recorded by extracellular electrodes as described in Example II. After collecting responses every 40 seconds for 20-30 minutes to establish a baseline, LTP was induced with ten short bursts of pulses delivered to the CA3 axons; each burst consisted of four pulses separated by 10 milliseconds; the interval between the bursts was 200 milliseconds. This pattern of axon stimulation mimics a discharge rhythm observed in the hippocampus of animals engaged in learning and is referred to as the "theta burst stimulation paradigm" [see, for example, Larson and Lynch in Science Vol. 232: 985-988 (1986)]. […]

Another data set relates to AMPA receptor. The data set can be described thus: Monosynaptic EPSP responses in the hippocampus of anesthetized rats after intraperitoneal injection. It counts as in vivo, rat (male Sprague-Dawley). The following applies: i.p. 120-180 mg/kg. Here is the method:
The time constant for the decay of the EPSP is a measure for the duration of the response.
In these experiments, male Sprague-Dawley rats were anesthetized with urethane (1.7 g/kg) and body temperature was maintained at 37° C. with the use of a heat lamp. A stimulation electrode (two twisted stainless steel wires, 150 μm diameter, insulated with teflon) was placed stereotaxically in the trajectory of the Schaffer collateral (SC) pathway from CA3 to CA1 of the hippocampus (coordinates relative to Bregma: 3.5 mm P., 3.5 mm L., and 3.0-3.7 mm V). A recording electrode (stainless steel, 150 μm diameter, insulated with teflon) was placed in the ipsilateral CA1 field (coordinates relative to Bregma: 3.8 mm P., 2.9 mm L., and 2.2-2.8 mm V.), 100-200 μm ventral to the electrophysiologically-identified CA1 stratum pyramidale (i.e., in the stratum radiatum).
Decay time constants were determined by single exponential fits to the decay phase of the synaptic response and expressed as a percent of the value obtained during the pre-injection control period.

The subject of data set [3] is hippocampal electroencephalogram. The data set can be described thus: Hippocampal electroencephalogram monitoring for electrographic seizures after i.p. injection. The following applies: i.p. 120-180 mg/kg. The data set is classed as in vivo, rat (male Sprague-Dawley).

With `COc1ccc(C(=O)N2CCCC2=O)cc1` [aniracetam, N-anisoyl-2-pyrrolidinone], the “conversion to anisoyl-GABA” value in data set [1] is listed as “about 80%”.
With `O=C(c1ccc2c(c1)OCCO2)N1CC=CCC1` [Invention Compound I], the “increase in area of the field EPSP” value with AMPA receptors (100 μM, mean and S.D. of 4 experiments) turned out to be 46±16%. For the same compound, the “increase in response area relative to aniracetam” value in the data set on AMPA receptors (750 μM) is reported as “nine”. Also, the “onset and reversibility of effect” value in the data set with AMPA receptors (750 μM, 15 min infusion, washout, FIG. 1) was “the effects occur quickly after infusion (horizontal bar) and reverse upon washout; also recorded: rapid onset of action and was fully reversible upon washout”. Further, the “effect on amplitude, duration (half-width) and area of synaptic response” value in the data set on AMPA receptors (750 μM, 15 min infusion, FIG. 1) is “increases the amplitude and duration (measured as half-width) of synaptic responses; also recorded: much larger effect than does aniracetam at twice the concentration; also recorded: the magnitude of the effects was much greater”. Also, in the data set on AMPA receptors (percent increase in field EPSP amplitude, log dose/response, maximal response of 85% increase assumed where solubility was limiting, read-out: EC50 (field EPSP amplitude)), the EC50 came to 500 µM. Moreover, the “degree of stable long-term potentiation” value in data set [2] is “increases the magnitude of long-term potentiation; also recorded: nearly twice as large; also recorded: facilitate induction of maximal long-term potentiation in vitro”. In addition, in the data set with AMPA receptor, the “time to reversal of the increased response duration” value lay in the range of 60 to 120 min. The “effect on duration / decay of synaptic responses” value with AMPA receptor (anesthetized rats, FIG. 4) was “slows the decay rate of synaptic responses; also recorded: rapid increase in the duration of the synaptic response; also recorded: somewhat larger for the second (primed) response; also recorded: reversibly prolong synaptic responses in the hippocampus”. The blood-brain barrier passage result in the data set on AMPA receptor (inferred from EPSP effect) was “sufficient amounts of the test compound cross the blood-brain barrier”. In addition, the electrographic seizures entry in data set [3] is given as “in no case did injections of Invention Compound I produce electrographic seizures”.
